The values below come from PubChem BioAssay (NCI).

Each structure is given as a SMILES string.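 Each compound was tested at five concentrations against cells in 96-well plates for 48 hours. Abbreviation: GI50, concentration required for 50% inhibition of growth. Definition used: TGI = concentration required for complete inhibition of growth.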

Some test systems named below: T-47D breast; BT-549 breast; MDA-N; HS 578T breast; MCF7 breast.
Holding throughout (test): NCI-60 cell line screen, 48 h

`NC(CSC1(c2ccc(Cl)cc2)c2ccccc2-c2ccccc21)C(=O)O` (stereo unspecified): the TGI in the assay with T-47D breast was above 100 µM; with BT-549 breast it was 34.6 µM; in the assay on MDA-N, above 100 µM; in the assay on HS 578T breast, 45.6 µM; in the assay with MCF7 breast, 39 µM.

Regarding `O=C(O)c1c[nH]c2c(ccc3[nH]cc(C(=O)O)c(=O)c32)c1=O`, the TGI with T-47D breast, with BT-549 breast, in the assay on MDA-N, in the assay with HS 578T breast and with MCF7 breast was above 100 µM in each case.

Turning to `COc1cc2oc(-c3ccc(O)cc3)cc(=O)c2c(OC)c1O`, the TGI in the assay on T-47D breast is 88.2 µM; with BT-549 breast, above 100 µM; in the assay on MDA-N it was above 100 µM; with HS 578T breast, above 100 µM; in the assay on MCF7 breast it was above 100 µM.

For the compound `Clc1ccc(Nc2ncnc3c2sc2ncccc23)c(Cl)c1`, the figures for the GI50 in the assay on BT-549 breast, with HS 578T breast and in the assay on MCF7 breast were 0.0243 µM, above 100 µM and below 0.01 µM, respectively. In addition, the TGI with BT-549 breast, in the assay on HS 578T breast and with MCF7 breast was above 100 µM in each case.

Turning to `C=C(C)[C@@H]1CC[C@]2(C(=O)N3CCN(C)CC3)CC[C@]3(C)[C@H](CC[C@@H]4[C@@]5(C)CC[C@H](O)C(C)(C)[C@@H]5CC[C@]43C)[C@@H]12`, the GI50 in the assay on T-47D breast is 1.48 µM; in the assay with BT-549 breast, 1.74 µM; with HS 578T breast, 1.94 µM; in the assay on MCF7 breast, 1.79 µM. Further, the TGI with T-47D breast is 3.75 µM; with BT-549 breast, 3.49 µM; with HS 578T breast it was 4.68 µM; in the assay with MCF7 breast, 4.22 µM.

Regarding `CCN(CC)CCNC(=O)C(Cl)=C1C(Cl)=C(Cl)C(Cl)=C1Cl`, the GI50 in the assay with T-47D breast was 4.19 µM; in the assay on BT-549 breast it was 12.6 µM; in the assay with HS 578T breast, 3.01 µM; in the assay on MCF7 breast, 2.8 µM. The TGI turned out to be 45.6 µM with T-47D breast, 25.3 µM in the assay on BT-549 breast, 25.3 µM with HS 578T breast and 13.5 µM in the assay on MCF7 breast.

Regarding `CN1c2ccccc2S(=O)(=O)n2c(COc3ccccc3)nnc21`, the TGI with T-47D breast, in the assay with BT-549 breast, in the assay on MDA-N, with HS 578T breast and in the assay on MCF7 breast was above 100 µM each time.

As for `C=CCCCC(O)c1ccc(C(O)c2cnc3ccccc3c2)o1` (stereo unspecified), the GI50 in the assay with T-47D breast is above 100 µM; in the assay with BT-549 breast, 19.7 µM; in the assay on HS 578T breast it was 22.3 µM; with MCF7 breast, 26 µM. The TGI with T-47D breast is above 100 µM; in the assay with BT-549 breast it was 63.5 µM; in the assay with HS 578T breast, above 100 µM; in the assay on MCF7 breast, above 100 µM.

Take `CCN(CC)CC(O)c1cc(-c2ccc(Cl)cc2)nc2cc(Cl)ccc12` (stereo unspecified): the GI50 in the assay with T-47D breast was 2.53 µM; in the assay on BT-549 breast, 4.75 µM; in the assay with HS 578T breast it was 2.51 µM; in the assay with MCF7 breast it was 1.5 µM. Further, the TGI in the assay with T-47D breast came out at 7.01 µM; with BT-549 breast, 14.8 µM; in the assay with HS 578T breast, 7.32 µM; with MCF7 breast, 2.9 µM.

As for `CCC1OC(=O)CC(O)C(C)C(OC2OC(C)CC(N(C)C)C2O)C(CC=O)CC(C)C(=O)/C=C/C2(C)OC2C1C` (stereo unspecified), the TGI in the assay with T-47D breast was 48.6 µM; with BT-549 breast, 31.8 µM; in the assay on MDA-N it was above 100 µM; in the assay on HS 578T breast, above 100 µM; in the assay with MCF7 breast, 25 µM.

In the case of `Oc1[nH]c2ccccc2c1/C=c1/ccc2c(c1)N=C(c1cc(F)cc(F)c1)N=2`, the GI50 in the assay on T-47D breast is 4.55 µM; in the assay on BT-549 breast, 2.13 µM; in the assay on HS 578T breast, 5.08 µM; in the assay on MCF7 breast, 2.84 µM. Besides, the TGI came to 21.3 µM in the assay with T-47D breast, 12.1 µM in the assay with BT-549 breast, 31.9 µM in the assay on HS 578T breast and 14.1 µM with MCF7 breast.

`Nc1nc(-c2ccc3ccccc3c2)cc(-c2cc(-c3ccc4ccccc4c3)nc(N)n2)n1`: the TGI with T-47D breast, in the assay on BT-549 breast, in the assay with MDA-N, in the assay on HS 578T breast and in the assay with MCF7 breast was above 100 µM each time.

`COc1cc(OC)c(/C=C/C(=O)c2c(O)cc(OC)c(C3CCN(C)CC3)c2OC)c(OC)c1`: the GI50 in the assay on T-47D breast was 1.76 µM; in the assay on BT-549 breast, 1.43 µM; in the assay with HS 578T breast, 1.81 µM. In addition, the TGI came out at 3.25 µM in the assay on T-47D breast, 2.73 µM in the assay with BT-549 breast and 4.29 µM in the assay with HS 578T breast.

On to `Cc1cc2nc3c4cc([N+](=O)[O-])ccc4n(CCN(C)C)c3nc2cc1C`, for which the GI50 was 0.549 µM in the assay with T-47D breast, 2 µM in the assay with BT-549 breast, 1.39 µM in the assay with HS 578T breast and 0.36 µM in the assay on MCF7 breast. For the same compound, the TGI with T-47D breast is above 42 µM; with BT-549 breast, 5.85 µM; in the assay on HS 578T breast it was 5.87 µM.

As to `Cn1cc(-c2ccc3nnc(C(F)(F)c4ccc5ncccc5c4)n3n2)cn1`, the GI50 is 40.8 µM in the assay with T-47D breast, 86.8 µM in the assay on BT-549 breast, 34.2 µM in the assay on HS 578T breast and 69.4 µM in the assay with MCF7 breast. Besides, the TGI in the assay on T-47D breast, in the assay on BT-549 breast, in the assay on HS 578T breast and in the assay with MCF7 breast was above 100 µM each time.

For `COc1ccc(Nc2ncccc2C(=O)NCc2cn(Cc3cccc(Oc4ccccc4)c3)nn2)c(OC)c1`, the GI50 with T-47D breast is 39.4 µM; in the assay on BT-549 breast it was 2.99 µM; in the assay with HS 578T breast, 9.52 µM; with MCF7 breast it was 0.653 µM. Further, the TGI with T-47D breast, in the assay with BT-549 breast, in the assay on HS 578T breast and in the assay with MCF7 breast was above 100 µM each time.

Consider `CC/C(=C(/CC)c1ccc(O)cc1)c1ccc(O)cc1`, for which the GI50 in the assay with T-47D breast was 6.85 µM; in the assay with BT-549 breast it was 6.16 µM; with HS 578T breast, 4.17 µM; in the assay on MCF7 breast, 5.78 µM. Further, the TGI in the assay on T-47D breast is 47 µM; with BT-549 breast it was 21.5 µM; in the assay with HS 578T breast, 32 µM; in the assay with MCF7 breast it was 19.3 µM.

For the compound `O=[N+]([O-])c1cccc([I+]c2ccccc2)c1`, the GI50 is 8.28 µM with T-47D breast, 10.5 µM in the assay on BT-549 breast, 10.1 µM in the assay on HS 578T breast and 8.29 µM in the assay with MCF7 breast. For the same compound, the TGI in the assay with T-47D breast was 33.4 µM; in the assay with BT-549 breast, 23.1 µM; with HS 578T breast, 68.2 µM; in the assay on MCF7 breast, 41.5 µM.
